Measured values as given in patent publication US12458604B2, “Methods of lipid nanoparticle manufacture and compositions derived therefrom” (George Mason Research Foundation, Inc., priority 2020, dated 2025).

What was measured:
[1] = pKa of the ionizable lipid measured in the LNP (TNS pKa); type: physicochemical; conditions: for pKa: lipid nanoparticle (LNP) containing the ionizable lipid; for DpKa: ACD pKa versus TNS pKa
Description: In some embodiments, the “LNP lipids” are MC3, DLin, and/or KC2 as shown below. The table highlights the pKa of the ionizable lipid measured in the LNP (TNS pKa) versus the pKa in aqueous medium predicated by a commercial software ACDLabs Percepta.:
In one embodiment, the amount of nucleic acid is represented by the LNP mole ratio of the amine on the ionizable lipid to the phosphate groups on the nucleic acid backbone and is typically about 3 to about 6. In one embodiment, the pKa of the LNP is in the about 6 to about 7 range corresponding to the pH in the early endosome. A link between the pKa of ionizable lipid in the LNP and gene silencing efficiency has shown that an LNP pKa in the range of about 6 to about 7 produced more silencing for the ionizable lipid DLinDMA and was associated with promoting lipid structures that could disrupt the membrane of the endosome. The pKa of the LNP may be measured using the pH-dependence of fluorescence enhancement of the anionic dye TNS.

[2] = tested on: HEK293 cells; assay: Firefly Luciferase Assay for mRNA Delivery Efficiency; type: cell-based; conditions: for potency when sodium acetate concentration was reduced from 60 mM to 25 mM / potency when mixed at the higher concentration 1.5 mg/ml vs the lower concentration 0.25 mg/ml: Example 12; for potency when mixed at the higher concentration 1.5 mg/ml vs the lower concentration 0.25 mg/ml / LNP potency at the higher versus lower mixing concentration: same dose; for LNP potency at the higher versus lower mixing concentration: NP 4, sodium acetate pH 4
Protocol: Summary: LNPs were formulated using total lipid concentration of 6 to 27 mM comprised of KC2/DSPC/Cholesterol/PEG-DMG (50:10:38.5:1.5 mol %). Each one of the lipids were solubilized in ethanol until a clear solution was observed. The four lipids were combined to get 50 mM total lipid concentration (25/5/19.25/0.75 mM respectively), then serial dilutions were done to reach 6 to 27 mM. […] Purified mRNA was ethanol precipitated, washed and resuspended in nuclease-free water to reach concentrations of 1 mg/mL. […] 16 μl Lipid Mix and 341 mRNA solution were mixed on Setting 3 and ejected into 48 μl 1×DPBS pH 7.4. The formed LNPS were then diluted into an additional 96 μl 1×DPBS pH 7.4. LNPs were then dialyzed against 1×DPBS pH 7.4 for 4×1 hr. LNPs were then diluted so that 32 ul contained 200 ng and 12K HEK293 cells were transfected with the same 200 ng dose but manufactured at different concentrations in the microfluidic mixer.
A. Firefly Luciferase Assay for mRNA Delivery Efficiency. After 24 hours of transfection, transfected cells were conditioned to room temperature for 30 minutes prior the Firefly Luciferase Assay. Quantilum Recombinant Luciferase standard curve was prepared in 10% EMEM in 5-fold serial dilutions. 50 ul of each standard point from the range of 3.9×10^−5 mg/ml to 4.88×10^−3 mg/ml were included in the microplate as a positive enzyme activity control (data not shown) to maintain a linearity of 10^7 RLU/mg/ml. The ONE-Glo substrate, previously conditioned to room temperature for at least 4 hours, was added to each untransfected, transfected and Quantilum wells in a ratio 1:1. Assay plates were incubated for 3 minutes in darkness and immediately introduced into the Cytation 5 Cell Imaging Multi-Mode Reader (Biotek) to read luminescence.
Each one of the lipids were solubilized in ethanol until a clear solution was observed. […] To prepare 75 mM total lipid concentration (37.5/7.5/28.88/1.13 mM respectively), KC2/DL-ADDE-C2C2-PipZ/BODD-ADDE-C2C4-PipZ and Cholesterol were mixed first, same for DSPC and PEG to solubilize both solutions in ethanol before combining them to reach 75 mM. […] Purified mRNA was ethanol precipitated, washed and resuspended in nuclease-free water to reach concentrations of 4.4 mg/ml. […] 16 μl Lipid Mix and 341 mRNA solution were mixed on Setting 3 and ejected into 48 μl 1×DPBS pH 7.4. The formed LNPS were then diluted into an additional 96 μl 1×DPBS pH 7.4. LNPs were then dialyzed against 1×DPBS pH 7.4 for 4×1 hr. LNPs were then diluted so that 32 ul contained 25-200 ng and 12K HEK293 cells were transfected with the same dose but manufactured at different concentrations in the microfluidic mixer.

[3] = tested on: mice; assay: In vivo and ex vivo Firefly Luciferase expression (IVIS); conditions: for higher potency in vivo of buffer-free assembly compared to using a buffer: by IVIS, high lipid and mRNA mixing concentrations, 0.25 protons per ionizable lipid, NP 4
Protocol: C: In vivo Firefly Luciferase expression in IM administration. 5 ug of encapsulated mRNA were injected in mice in intramuscular (I.M.), intradermal (ID.) and intravenous (I.V.) injections. ROIs were calculated using the IVIS system. Imaging were performed at 4 and 20 hours.
(§1) C: In vivo Firefly Luciferase expression in IM administration. 0.5-5 ug of total mRNA was injected in mice in intramuscular (I.M.) injections. Luciferin was administrated intraperitoneally at 4 hours post-injection and luciferase expression monitored by live animal imaging at 4 and 24 hours. ROIs were calculated using the IVIS system.
as §1, with “D:” for “C:”, “In vivo and ex” for “In”, “administration for LNPs mixed at 1.5 mg/ml. 1” for “administration. 0.5-5”, “4” for “4 and 24”, “system. For Ex Vivo, organs were extracted and imaged immediately after In Vivo imaging.” for “system.”
E: In vivo and ex vivo Firefly Luciferase expression in IV administration for LNPs mixed at 1.5 mg/ml. 1 ug of total mRNA was injected in mice in […] (I.V.) injections. Luciferin was administrated intraperitoneally at 4 hours post-injection and luciferase expression monitored by live animal imaging at 4 hours. ROIs were calculated using the IVIS system. For Ex Vivo, organs were extracted and imaged immediately after In Vivo imaging.

[4] = tested on: SARS-CoV-2; assay: In vivo protection against viral challenge; conditions: SARS-CoV-2 immunogen mRNA, mice, I.M.
Protocol: Summary: LNPs were formulated using total lipid concentration of 10-75 mM comprised of several ionizable/DSPC/Cholesterol/PEG-DMG (47-50:10-13:37-38.5:1.5-2 mol %). Each one of the lipids were solubilized in ethanol until a clear solution was observed. The four lipids were combined to get 75 mM total lipid concentration then serial dilutions were done to reach 10 mM. Codon optimized 2019-nCoV Wuhan S-2P (Covid) sequence was cloned into an mRNA plasmid (optimized 3′ and 5′ UTR and containing a 101 polyA tail (SEQ ID NO: 4)) for co-transcriptional capping, in vitro transcribed using N1 methyl pseudouridine modified nucleoside and cellulose purified to remove dsRNA. Purified mRNA was ethanol precipitated, washed and resuspended in nuclease-free water to reach concentrations of 5.5 mg/ml. […] 16 μl Lipid Mix and 32 μl mRNA solution were mixed on Setting 3 and ejected into 48 μl 1×DPBS pH 7.4. The formed LNPS were then diluted into an additional 96 μl 1×DPBS pH 7.4. LNPs were then dialyzed against 1×DPBS pH 7.4 for 4×1 hr. LNPs were then diluted so that 32 ul contained 25-200 ng and 12K HEK293 cells were transfected with the same dose but manufactured at different concentrations in the microfluidic mixer.
A: In vivo protection against viral challenge—Survival proportion, Weight and Temperature in Challenge model. […]

[5] = pKa of the ionizable lipid measured in the LNP; published ionizable lipids; cited from earlier work

| Structure (SMILES) | pKa [1] | potency when sodium acetate concentration was reduced from 60 mM to 25 mM [2] | potency when mixed at the higher concentration 1.5 mg/ml vs the lower concentration 0.25 mg/ml [2] | potency on increasing pH from 4 to 5 ([2]; Example 13, 1.5 mg/ml mRNA in 25 mM NaOAc) | LNP potency at the higher versus lower mixing concentration ([2]; in vitro) | higher potency in vivo of buffer-free assembly compared to using a buffer ([3]; IM administration) [×] | higher potency in vivo of buffer-free assembly compared to using a buffer ([3]; IV administration) [×] | Protective against lethal challenge ([4]; 0.25 ug) [%] | DpKa [1] | LNP potency increase when reducing sodium acetate from 50 mM to 25 mM ([2]; 1.5 mg/ml of mRNA, pH 4, NP 4) [%] | delivery efficiency at the same dose with increased mixing concentration ([2]; in vitro, KC2/DSPC/Cholesterol/PEG-DMG LNPs, NP 4) | LNP potency increase when reducing sodium acetate concentration from 25 mM to 10 mM ([2]; mRNA concentration of 0.25 mg/ml, pH 4, NP 4) [×] | delivery efficiency at the same dose with increased mixing concentration ([3]; in vivo, 5 ug of encapsulated mRNA, lipids 5 to 100 mM, mRNA 0.1 to 2 mg/ml) | TNS pKa [5] | Protective against lethal challenge ([4]; 0.5 ug) [%] |
| --- | --- | --- | --- | --- | --- | --- | --- | --- | --- | --- | --- | --- | --- | --- | --- |
| CCCCC/C=C\C/C=C\CCCCCCCCOC(=O)CCN(CCC(=O)OCCCCCCCC/C=C\C/C=C\CCCCC)CCN1CCN(C)CC1 (racemic) [DL-C2/C2-PipZ] | ~7.5 | did not show either effect | did not |  |  |  |  |  |  |  |  |  |  |  |  |
| CCCCCCCCC(CCCCCCCC)COC(=O)CCN(CCCCN1CCN(C)CC1)CCC(=O)OCC(CCCCCCCC)CCCCCCCC [BOD-C2/C4-PipZ] | ~6.5 | increased potency | large increase in potency | increases potency | LNP potency increases | 3 | 3 | 100 |  |  |  |  |  |  |  |
| CCCCC/C=C\C/C=C\CCCCCCCCOCC(CN(C)C)OCCCCCCCC/C=C\C/C=C\CCCCC (centres unmarked) [DLin] |  |  |  |  |  |  |  |  | 1.8 |  |  |  |  |  |  |
| CCCCC/C=C\C/C=C\CCCCCCCCC1(CCCCCCCC/C=C\C/C=C\CCCCC)OCC(CCN(C)C)O1 (centres unmarked) [KC2] | ~6.5 | increased potency | large increase in potency |  | LNP potency increases |  |  |  | 2.6 | 44 | increased delivery efficiency at the same dose only at the lowest NaOAc concentration of 50 mM | 2.2 | increased delivery efficiency | 6.7 |  |
| CCCCC/C=C\C/C=C\CCCCCCCCC(CCCCCCCC/C=C\C/C=C\CCCCC)OC(=O)CCCN(C)C [MC3] | ~6.5 | increased potency | large increase in potency |  | LNP potency increases |  |  |  | 3 |  |  |  |  | 6.4 | 100 |
